According to patent publication US9533995B2, “Substituted N-heteroaryl spirolactam bipyrrolidines, preparation and therapeutic use thereof” (SANOFI, priority 2010, dated 2017):
Counter-ions that a name gives are not always drawn.

Molecular target: rhesus (Macacca Mulatta) H3 receptor (Macaca mulatta, UniProt Q865E1)
Assay: Rhesus H3 radioligand binding assay ([3H]-Methylhistamine displacement, WGA SPA beads)
Set-up: species or system rhesus monkey (Macacca Mulatta)
Conditions: [3H]-Methylhistamine 2 nM, rhesus H3 membranes, 25° C., 1 hour; Cheng-Prusoff
Procedure: Rhesus H3 membranes were prepared from the Flp-In T-REx 293 Cell Line (Invitrogen) stably transfected with pcDNA5/FRT/TO (Invitrogen) containing the rhesus monkey (Macacca Mulatta) 445 amino acid H3 receptor. (Genbank #AY231164). Stably transfected cultures were amplified in tissue culture flasks by standard tissue culture methods and induced to express rhesus H3 by exposure to 500 ng/ml tetracycline (Cellgro) for 24 hours. After induction, cells were dissociated from flasks utilizing Cell Stripper (Cellgro). Cells were centrifuged (1K×g, 5 min) and pellet frozen in an ethanol-dry ice bath to disrupt cell membranes. Frozen cell pellet was re-suspended in 5 mM HEPES (pH 7.4, Invitrogen) at 10 ml/1000 cm2 of harvested cells. The cell suspension was drawn through an 18 gauge needle (2-3×) followed by a 23 gauge needle (2-3×) to further disrupt cell membranes. The cell suspension was centrifuged (40K×g, 30 min). Cell membrane pellet was re-suspended in 5 mM HEPES (pH 7.4, Invitrogen) at a final protein concentration of 10 mg/ml. Rhesus H3 membranes were stored under liquid nitrogen prior to use in [3H]-Methylhistamine and GTPγS radioligand binding assays.
Rhesus H3 radioligand binding assay was performed using rhesus H3 receptor membranes (prepared as described above), [3H]-Methylhistamine (Perkin Elmer) and WGA SPA beads (wheat germ agglutinin scintillation proximity assay) beads (Amersham). The assay was performed in 96-well Opti-Plates (Packard). Each reaction contained 50 μl rhesus H3 membranes (20-30 μg total protein), 50 μl WGA SPA beads (0.1 μg) and 50 μl of 83 Ci/mmol [^3H]-Methylhistamine (final concentration 2 nM) and 50 μl of tested compound. The compounds of this invention and/or vehicle were diluted with binding buffer from 10 mM DMSO stocks. Assay plates were sealed with TopSeal (Perkin Elmer) and mixed on shaker (25° C., 1 hour). Assay plates were read on TopCount scintillation counter (Packard). Results were analyzed by Hill transformation and Ki values were determined by Cheng-Prusoff equation.

rhesus (Macacca Mulatta) H3 receptor, sequence (Q865E1 1-445): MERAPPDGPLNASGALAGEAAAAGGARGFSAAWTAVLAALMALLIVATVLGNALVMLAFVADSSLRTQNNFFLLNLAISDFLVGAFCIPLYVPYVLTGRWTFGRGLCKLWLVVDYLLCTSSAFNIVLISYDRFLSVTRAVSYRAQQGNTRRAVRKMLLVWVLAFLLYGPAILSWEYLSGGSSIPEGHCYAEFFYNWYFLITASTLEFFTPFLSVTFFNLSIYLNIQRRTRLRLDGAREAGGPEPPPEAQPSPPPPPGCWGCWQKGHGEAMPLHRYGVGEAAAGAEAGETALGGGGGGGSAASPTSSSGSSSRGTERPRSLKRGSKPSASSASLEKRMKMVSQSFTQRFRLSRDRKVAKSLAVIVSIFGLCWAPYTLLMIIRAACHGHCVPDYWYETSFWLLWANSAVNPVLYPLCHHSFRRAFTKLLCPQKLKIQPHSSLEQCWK

Compound	Ki
Cc1nc(N2CC[C@@H](N3CCC[C@@H]3C)C2)ccc1N1CCC2(CCOCC2)C1=O [Example 1, 2-[2-Methyl-6-((2S,3′R)-2-methyl-[1,3′]bipyrrolidinyl-1′-yl)-pyridin-3-yl]-8-oxa-2-aza-spiro[4.5]decan-1-one]	37.6 nM
Cc1nc(N2CC[C@H](N3CCC[C@@H]3C)C2)ccc1N1CCC2(CCNCC2)C1=O [Example 11, 2-[2-Methyl-6-((2S,3′S)-2-methyl-[1,3′]bipyrrolidinyl-1′-yl)-pyridin-3-yl]-2,8-diaza-spiro[4.5]decan-1-one]	7.57 nM
Cc1nc(N2CC[C@H](N3CCC[C@@H]3C)C2)ccc1N1CCC2(CCOCC2)C1=O [Example 7, 2-[2-Methyl-6-((2S,3′S)-2-methyl-[1,3′]bipyrrolidinyl-1′-yl)-pyridin-3-yl]-8-oxa-2-aza-spiro[4.5]decan-1-one]	7.1 nM
C[C@H]1CCCN1[C@H]1CCN(c2cnc(N3CCC4(CCN(C(=O)OC(C)(C)C)CC4)C3=O)cn2)C1 [Example 14, 2-[5-((2S,3′S)-2-Methyl-[1,3′]bipyrrolidinyl-1′-yl)-pyrazin-2-yl]-1-oxo-2,8-diaza-spiro[4.5]decane-8-carboxylic acid tert-butyl ester]	105 nM
C[C@H]1CCCN1[C@H]1CCN(c2ncc(N3CCC4(CCOCC4)C3=O)cn2)C1 [Example 16, 2-[2-((2S,3′S)-2-Methyl-[1,3′]bipyrrolidinyl-1′-yl)-pyrimidin-5-yl]-8-oxa-2-aza-spiro[4.5]decan-1-one]	4.21 nM
Cc1nc(N2CC[C@H](N3CCC[C@@H]3C)C2)ccc1N1CCC2(CCN(C(=O)OC(C)(C)C)CC2)C1=O [Example 15, 2-[2-Methyl-6-((2S,3′S)-2-methyl-[1,3′]bipyrrolidinyl-1′-yl)-pyridin-3-yl]-1-oxo-2,8-diaza-spiro[4.5]decane-8-carboxylic acid tert-butyl ester]	95.5 nM
C[C@H]1CCCN1[C@H]1CCN(c2ncc(N3CCC4(CCN(C(=O)OC(C)(C)C)CC4)C3=O)cn2)C1 [Example 12, 2-[2-((2S,3′S)-2-Methyl-[1,3′]bipyrrolidinyl-1′-yl)-pyrimidin-5-yl]-1-oxo-2,8-diaza-spiro[4.5]decane-8-carboxylic acid tert-butyl ester]	48.5 nM
C[C@H]1CCCN1[C@H]1CCN(c2cnc(N3CCC4(CCNCC4)C3=O)cn2)C1 [Example 10, 2-[5-((2S,3′S)-2-Methyl-[1,3′]bipyrrolidinyl-1′-yl)-pyrazin-2-yl]-2,8-diaza-spiro[4.5]decan-1-one]	26.3 nM
Cc1nc(N2CC[C@@H](N3CCC[C@@H]3C)C2)ccc1N1CCC2(CCNCC2)C1=O [Example 8, 2-[2-Methyl-6-((2S,3′R)-2-methyl-[1,3′]bipyrrolidinyl-1′-yl)-pyridin-3-yl]-2,8-diaza-spiro[4.5]decan-1-one hydrochloride]	17.5 nM
Cc1nc(N2CC[C@@H](N3CCC[C@@H]3C)C2)ccc1N1CCCC2(CCOCC2)C1=O [Example 2, 2-[2-Methyl-6-((2S,3′R)-2-methyl-[1,3′]bipyrrolidinyl-1′-yl)-pyridin-3-yl]-9-oxa-2-aza-spiro[5.5]undecan-1-one]	95.1 nM
Cc1nc(N2CC[C@@H](N3CCC[C@@H]3C)C2)ccc1N1CCCC2(CCNCC2)C1=O [Example 9, 2-[2-Methyl-6-((2S,3′R)-2-methyl-[1,3′]bipyrrolidinyl-1′-yl)-pyridin-3-yl]-2,9-diaza-spiro[5.5]undecan-1-one hydrochloride]	38.9 nM
Cc1nc(N2CC[C@@H](N3CCC[C@@H]3C)C2)ccc1N1CCC2(CCC(O)CC2)C1=O (stereo partly drawn) [Example 5, 8-Hydroxy-2-[2-methyl-6-((2S,3′R)-2-methyl-[1,3′]bipyrrolidinyl-1′-yl)-pyridin-3-yl]-2-aza-spiro[4.5]decan-1-one]	267 nM
Cc1nc(N2CC[C@@H](N3CCC[C@@H]3C)C2)ccc1N1CCC2(CCCCC2)C1=O [Example 6, 2-[2-Methyl-6-((2S,3′R)-2-methyl-[1,3′]bipyrrolidinyl-1′-yl)-pyridin-3-yl]-2-aza-spiro[4.5]decan-1-one]	56.5 nM
C[C@H]1CCCN1[C@H]1CCN(c2ccc(N3CCC4(CCOCC4)C3=O)nc2)C1 [Example 13, 2-[5-((2S,3′S)-2-Methyl-[1,3′]bipyrrolidinyl-1′-yl)-pyridin-2-yl]-8-oxa-2-aza-spiro[4.5]decan-1-one]	22.3 nM
